What was measured:
[1] = tested on: normal primary NK cells, pool 1 (3 donors) (IL-2 2.5 ng/mL); test: drug sensitivity score (DSS) (DSS units); higher = more sensitive; extreme values may be limits of the assay; conditions: 72 h
IMC-1 (IL-2 20 ng/mL) [2] = test: as above; conditions: 72 h
NK-YS (IL-2 2.5 ng/mL) [3] = test: as above; conditions: 72 h
YT (IL-2 2.5 ng/mL) [4] = test: as above; conditions: 72 h
DERL-7 (IL-2 2.5 ng/mL) [5] = test: as above; conditions: 72 h
[6] = tested on: normal primary NK cells, pool 2 (3 donors) (IL-2 2.5 ng/mL); test: as above; conditions: 72 h
NK-92 (IL-2 2.5 ng/mL) [7] = test: as above; conditions: 72 h
KHYG-1 (IL-2 2.5 ng/mL) [8] = test: as above; conditions: 72 h
[9] = tested on: normal primary NK cells, pool 1 (3 donors), resting (IL-2 0 ng/mL); test: as above; conditions: 72 h
[10] = tested on: normal primary NK cells, pool 3 (3 donors) (IL-2 2.5 ng/mL); test: as above; conditions: 72 h
NKL (IL-2 2.5 ng/mL) [11] = test: as above; conditions: 72 h
KAI3 (IL-2 2.5 ng/mL) [12] = test: as above; conditions: 72 h
SNK-6 (IL-2 2.5 ng/mL) [13] = test: as above; conditions: 72 h
[14] = tested on: normal NK cells expanded with K562-aAPC; test: as above; conditions: 72 h; IL-2 2.5 ng/mL
Description: (§1)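 Drug sensitivity and resistance testing on K562-aAPC-expanded normal NK cells: 5 concentrations (10-fold steps over a 10,000-fold range), 72 h at 37 °C, viability by CellTiter-Glo normalised to DMSO and benzethonium chloride controls; DSS from the fitted curve.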

[15] = tested on: normal NK cells expanded with K562-aAPC; test: percent inhibition of viability; higher = more inhibition; conditions: 72 h, IL-2 2.5 ng/mL
Description: as §1

[16] = tested on: normal primary NK cells, pool 1 (3 donors) (IL-2 2.5 ng/mL); test: as above; conditions: 72 h
IMC-1 (IL-2 20 ng/mL) [17] = test: as above; conditions: 72 h
NK-YS (IL-2 2.5 ng/mL) [18] = test: as above; conditions: 72 h
YT (IL-2 2.5 ng/mL) [19] = test: as above; conditions: 72 h
DERL-7 (IL-2 2.5 ng/mL) [20] = test: as above; conditions: 72 h
[21] = tested on: normal primary NK cells, pool 2 (3 donors) (IL-2 2.5 ng/mL); test: as above; conditions: 72 h
NK-92 (IL-2 2.5 ng/mL) [22] = test: as above; conditions: 72 h
KHYG-1 (IL-2 2.5 ng/mL) [23] = test: as above; conditions: 72 h
[24] = tested on: normal primary NK cells, pool 1 (3 donors), resting (IL-2 0 ng/mL); test: as above; conditions: 72 h
[25] = tested on: normal primary NK cells, pool 3 (3 donors) (IL-2 2.5 ng/mL); test: as above; conditions: 72 h
NKL (IL-2 2.5 ng/mL) [26] = test: as above; conditions: 72 h
KAI3 (IL-2 2.5 ng/mL) [27] = test: as above; conditions: 72 h
SNK-6 (IL-2 2.5 ng/mL) [28] = test: as above; conditions: 72 h

Cc1ccc(NC(=O)c2ccc(CN3CCN(C)CC3)cc2)cc1Nc1nc(-c2cccnc2)cs1 [Masitinib] (max concentration tested 10000 nM)
Conditions | drug sensitivity score
DERL-7 (IL-2 2.5 ng/mL) [5] | 7.97
IMC-1 (IL-2 20 ng/mL) [2] | 5.34
KAI3 (IL-2 2.5 ng/mL) [12] | 5.72
KHYG-1 (IL-2 2.5 ng/mL) [8] | 6.29
NK-92 (IL-2 2.5 ng/mL) [7] | 4.64
NK-YS (IL-2 2.5 ng/mL) [3] | 7.84
NKL (IL-2 2.5 ng/mL) [11] | 5.08
SNK-6 (IL-2 2.5 ng/mL) [13] | 3.3
YT (IL-2 2.5 ng/mL) [4] | 6.67
[1] | 5.41
[6] | 4.61
[9] | 5.07
[10] | 4.72
[14] | 6.42

percent inhibition of viability [%]
Conditions | 1 nM | 10 nM | 100 nM | 1000 nM | 10000 nM
DERL-7 (IL-2 2.5 ng/mL) [20] | -4.46 | 4.7 | -3.25 | 14.7 | 99.9
IMC-1 (IL-2 20 ng/mL) [17] | -6.41 | -3.52 | -8.01 | -3.09 | 100
KAI3 (IL-2 2.5 ng/mL) [27] | 0.17 | 0.29 | -11.5 | 2.65 | 96.5
KHYG-1 (IL-2 2.5 ng/mL) [23] | -4.84 | 3.44 | -1.97 | 5.87 | 97.8
NK-92 (IL-2 2.5 ng/mL) [22] | -1.64 | 6.19 | 1.77 | -11.2 | 96.5
NK-YS (IL-2 2.5 ng/mL) [18] | -1.57 | -2.35 | 1.86 | 14.4 | 98.2
NKL (IL-2 2.5 ng/mL) [26] | -13.2 | -15.1 | -14.2 | -3.8 | 96.7
SNK-6 (IL-2 2.5 ng/mL) [28] | 11 | 9.07 | -33.7 | -49.3 | 86.9
YT (IL-2 2.5 ng/mL) [19] | 0.22 | -0.59 | -2.17 | 8.04 | 97.5
[15] | -1.56 | -0.88 | -2.2 | 6.06 | 99.6
[16] | -9.84 | -12.7 | -4.81 | -1.08 | 98.6
[21] | -10.8 | -9.27 | -8.85 | -5.72 | 90.7
[24] | -13.3 | -12 | 9.4 | -3 | 95.5
[25] | -9.21 | -14.7 | -12.2 | -0.94 | 86.2

CC(C)[C@H]1C(=O)N[C@@H](CCCNC(=N)N)C(=O)NCC(=O)N[C@@H](CC(=O)O)C(=O)N[C@H](Cc2ccccc2)C(=O)N1C [Cilengitide] (max concentration tested 10000 nM)
Conditions | drug sensitivity score
DERL-7 (IL-2 2.5 ng/mL) [5] | 0
IMC-1 (IL-2 20 ng/mL) [2] | 0
KAI3 (IL-2 2.5 ng/mL) [12] | 0
KHYG-1 (IL-2 2.5 ng/mL) [8] | 0
NK-92 (IL-2 2.5 ng/mL) [7] | 0
NK-YS (IL-2 2.5 ng/mL) [3] | 0
NKL (IL-2 2.5 ng/mL) [11] | 0
SNK-6 (IL-2 2.5 ng/mL) [13] | 0
YT (IL-2 2.5 ng/mL) [4] | 0
[1] | 0
[6] | 0
[9] | 0
[10] | 0
[14] | 0

percent inhibition of viability [%]
Conditions | 1 nM | 10 nM | 100 nM | 1000 nM | 10000 nM
DERL-7 (IL-2 2.5 ng/mL) [20] | 1.94 | -0.89 | 5.16 | -1.67 | 1.74
IMC-1 (IL-2 20 ng/mL) [17] | -4.13 | -2.67 | -2.6 | -4.07 | -10
KAI3 (IL-2 2.5 ng/mL) [27] | 0.99 | -4.51 | 0.53 | -7.41 | -4.2
KHYG-1 (IL-2 2.5 ng/mL) [23] | -4.74 | -8.58 | -8.46 | -5.89 | -5.46
NK-92 (IL-2 2.5 ng/mL) [22] | -6.89 | -15.6 | -2.78 | -19.4 | -3.46
NK-YS (IL-2 2.5 ng/mL) [18] | 3.77 | -3.77 | -3.08 | -1.52 | -1.33
NKL (IL-2 2.5 ng/mL) [26] | -5.73 | -8.69 | -8.49 | -3.48 | -5.17
SNK-6 (IL-2 2.5 ng/mL) [28] | 5.33 | -1.64 | -18.7 | -5.25 | -3.56
YT (IL-2 2.5 ng/mL) [19] | -3.44 | -9.37 | -2 | -8.27 | -2.28
[15] | -8.83 | -11.2 | -7.88 | -10.2 | -11.3
[16] | -11.5 | -10.7 | -11.7 | -4.42 | -5.41
[21] | -8.85 | -4.43 | -5.82 | -9.18 | -7.87
[24] | -16.2 | -13.2 | -18.2 | -14 | -17.6
[25] | -10.7 | -5.35 | -6.3 | -9.92 | -10.2

COc1cc2/c(=N/c3ccc(Br)cc3F)nc[nH]c2cc1OCC1CCN(C)CC1 [Vandetanib] (max concentration tested 1000 nM)
Conditions | drug sensitivity score
DERL-7 (IL-2 2.5 ng/mL) [5] | 0
IMC-1 (IL-2 20 ng/mL) [2] | 0.22
KAI3 (IL-2 2.5 ng/mL) [12] | 0.3
KHYG-1 (IL-2 2.5 ng/mL) [8] | 0
NK-92 (IL-2 2.5 ng/mL) [7] | 0
NK-YS (IL-2 2.5 ng/mL) [3] | 0.03
NKL (IL-2 2.5 ng/mL) [11] | 0
SNK-6 (IL-2 2.5 ng/mL) [13] | 7.25
YT (IL-2 2.5 ng/mL) [4] | 0.08
[1] | 0
[6] | 0.01
[9] | 0
[10] | 0
[14] | 2.32

percent inhibition of viability [%]
Conditions | 0.1 nM | 1 nM | 10 nM | 100 nM | 1000 nM
DERL-7 (IL-2 2.5 ng/mL) [20] | -0.64 | -4.35 | -15.9 | -3.72 | 3.05
IMC-1 (IL-2 20 ng/mL) [17] | -1 | -1.11 | 2.06 | 4.13 | 13.1
KAI3 (IL-2 2.5 ng/mL) [27] | 0.12 | -3.68 | -0.86 | -6.05 | 18.6
KHYG-1 (IL-2 2.5 ng/mL) [23] | -1.45 | 0.56 | 5.16 | 2.56 | 12.2
NK-92 (IL-2 2.5 ng/mL) [22] | -4.34 | -9.89 | -2.18 | -8.76 | 7.58
NK-YS (IL-2 2.5 ng/mL) [18] | -3.92 | -3.47 | 0.22 | 0.66 | 11.3
NKL (IL-2 2.5 ng/mL) [26] | -13.3 | -15.3 | -10 | 2.48 | 9
SNK-6 (IL-2 2.5 ng/mL) [28] | 12.7 | 14.6 | 14.3 | 33.2 | 24.4
YT (IL-2 2.5 ng/mL) [19] | 2.5 | 1.99 | 6.02 | -0.29 | 12.9
[15] | -8.6 | 1.05 | -3.45 | 6.91 | 29.5
[16] | -5.01 | -0.24 | -7.43 | -15.2 | 2.01
[21] | -2.11 | 0.59 | -1.27 | -7.23 | 12.3
[24] | 7.75 | -11.8 | -1.4 | -19.4 | 11.2
[25] | -11.4 | -7.39 | -2.76 | -1.3 | -0.41

From the supplement of paper PMC5908809
